Patent US8779188B2, “Process for the production of L-carnitine tartrate” (Lonza Ltd., priority 2010, dated 2014)

Key:
[1] = Solubility of L-carnitine tartrate in ethanol in relation to the water content of the ethanol (FIG. 1); assay type: physicochemical; conditions: ethanol comprising less than 5% water / no or low amounts of water
From the text: Without being bound to theory, it is assumed that the strong improvements of the inventive process are associated with the low solubility of L-carnitine tartrate in ethanol comprising no water or only low amounts of water. […] The relationship of L-carnitine tartrate solubility to the water content of ethanol is shown in the scheme of FIG. 1. […] Thereby, high yields are obtained even when avoiding extreme temperatures for heating and cooling.

[2] = cited from earlier work

| solubility in ethanol [1] | SMILES | hygroscopicity ([2]; pure carnitine) | solubility in ethanol ([1]; L-tartrate) | solubility in ethanol ([1]; listed as carnitine tartrate, L-tartrate) | stability during storage ([2]; normal air moisture, disclosed in EP 0 434 088 A1) |
| --- | --- | --- | --- | --- | --- |
| almost insoluble | C[N+](C)(C)CC(O)CC(=O)[O-] [L-carnitine, 3-hydroxy-4-trimethylammonio-butanoate] | highly hygroscopic |  |  |  |
|  | C[N+](C)(C)C[C@H](O)CC(=O)[O-].O=C(O)C(O)C(O)C(=O)O [L-carnitine tartrate, L-carnitine L-tartrate] |  | decreased dramatically | very low | stable |
